{"source": "patent US10064865B2", "about": "“Composition comprising phosphodiesterase type 5 inhibitor for inhibiting apoptosis of nerve cells” (ARIBIO INC., priority 2012, dated 2018)", "origin": "cited, not measured here", "test_system": "B-chronic lymphocytic leukemia cells", "conditions": "Marika Sarfati et al., BLOOD 2003; cited from earlier work", "data": [{"molecule": "CCCc1nn(C)c2c(=O)[nH]c(-c3cc(S(=O)(=O)N4CCN(C)CC4)ccc3OCC)nc12", "note": "[sildenafil]", "values": [{"measurement": "apoptosis of B-chronic lymphocytic leukemia cells", "value": "induce caspase-dependent apoptosis"}]}]}
